Source: patent US20230416247A1, “DRUG-LIKE MOLECULES AND METHODS FOR THE THERAPEUTIC TARGETING OF MICRORNA-21” (University of Washington, priority 2020, published 2023)

Tested on: pre-Let7 processing by Dicer-TRBP
Assay: Dicer/TRBP in vitro processing of pre-Let7
Format: biochemical, human
Conditions: 2 μM compound vs no compound
Procedure: In order to further assess the biochemical activity of our compounds, processing of pre-miR-21 and pre-Let7 by Dicer-TRBP in vitro was compared. FIGS. 9A and 9B show selective response in the rate of processing under early phase reaction conditions, before significant product builds up, for pre-miR21 compared to pre-Let7.
The results are specific to the initial rates (0.25-5 min) of the reaction. […] This is inevitable because Dicer binds the product tightly. This assay and method of inhibiting miR-21 synthesis is different than typical enzymatic assays. First, the small molecule is targeting the substrate of the enzymatic assay. High affinity compounds that change the structure of the substrate may reduce processing but might not inhibit processing completely. Rather, changes in the specificity constant (kcat/Km), are a better measure of small molecule inhibition than traditional Ki's.
Dicer/TRBP. The Dicer/TRBP enzyme complex was expressed and purified using published methods and stored at −80° C. in 20 μL aliquots until needed. Briefly, the gene encoding human full-length Dicer was inserted into a modified pFastBac1 vector (Invitrogen), which has an N-terminal glutathione-S-transferase (GST) tag. […] The clones were transformed into Rosetta 2 cells and the transformants were grown in LB media at 37° C. until the cells reached a density corresponding to an OD reading of 0.8 at 600 nm. […]

## O=c1[nH]c(Nc2ccc(N3CCNCC3)cn2)nc2cccnc12 [Compound 25]
  DICER/TRBP activity on pre-Let7: no significant difference in activity is observed
